Assays:
[1] = system: p-Stat5 (Y694) in KCL-22 CML cells; assay: Western blot p-Stat5, KCL-22 CML cells; format: cell-based, human; conditions: 4 hours
Procedure: (§1) Human KCL-22 CML cells were obtained from the American Type Culture Collection (ATCC). Cells were cultured in RPMI-1640 media containing 10% fetal bovine serum (FBS). Imatinib-resistant human KCL-22 CML cells expressing the T315I mutant Bcr-Abl (KCL-22M) were derived from human KCL-22 CML cells (Yuan et al., 2010). Cells were grown in RPMI 1640 media supplemented with 10% FBS. Monoclonal antibodies to Abl protein and phosphotyrosine (p-Y) were obtained from BD Biosciences (San Diego, Calif.). Polyclonal antibodies to p-Stat5 (Y694) and p-Src family (Y419) were obtained from Cell Signaling Technologies (Cambridge, Mass.). Polyclonal antibodies to Stat5 were from Santa Cruz Biotechnology (Santa Cruz, Calif.). Monoclonal antibody to Src was obtained from Millipore (Billerica, Mass.).
(§2) Western analyses were performed as described previously with minor modification (Nam et al., 2005b). Briefly, KCL-22 CML and T315I KCL-22 CML cells were treated with IRDs. Whole-cell lysates were resolved by SDS-PAGE and immunoblotted with specific antibodies. Primary phospho-specific antibodies were incubated in TBS (pH 7.5) with 0.1% Tween-20 and 5% BSA with gentle agitation overnight at 4° C. […] Positive immuno-reactive proteins were detected using the ECL system (Pierce, Rockford, Ill.). […]

[2] = system: p-Src in T315I KCL-22 CML cells; assay: Western blot p-Src, T315I KCL-22 CML cells; format: cell-based, human; conditions: 1.0 μM
Procedure: as §1, §2

[3] = system: p-Src in KCL-22 CML cells; assay: Western blot p-Src, KCL-22 CML cells; format: cell-based, human; conditions: 1.0 μM
Procedure: as §1, §2

[4] = system: p-Stat5 (Y694) in T315I KCL-22 CML cells; assay: Western blot p-Stat5, T315I KCL-22 CML cells; format: cell-based, human; conditions: 4 hours
Procedure: as §1, §2

[5] = system: p-Bcr-Abl in T315I KCL-22 CML cells; assay: Western blot p-Bcr-Abl, T315I KCL-22 CML cells; format: cell-based, human; conditions: 4 hours
Procedure: as §1, §2

[6] = system: p-Bcr-Abl in KCL-22 CML cells; assay: Western blot p-Bcr-Abl, KCL-22 CML cells; format: cell-based, human; conditions: 4 hours
Procedure: as §1, §2

ABL1 = ABL1 (Homo sapiens, UniProt P00519); assay: in vitro kinase assay, recombinant ABL1; format: biochemical; conditions: ABL versus Src, higher concentration for ABL
Procedure: The in vitro kinase assays of an IRD (IRD Nos. 10, 11, 13, 61, 70, 71, 79, 80, 83˜87 and 176) were carried out using recombinant proteins according to the procedure disclosed in Nam 2012 (Nam, S., Xie, J., Perkins, A., Ma, Y., Yang, F., Wu, J., Wang, Y., Xu, R. Z., Huang, W., Horne, D. A., and Jove, R. (2012) Novel synthetic derivatives of the natural product berbamine inhibit Jak2/Stat3 signaling and induce apoptosis of human melanoma cells, Molecular oncology), which is hereby incorporated by reference in its entirety, as if fully set forth herein.

[7] = system: Imatinib-resistant human KCL-22 CML cells expressing the T315I mutant Bcr-Abl; assay: Drug resistance of imatinib-resistant T315I KCL-22 CML cells; format: cell-based

Chain of ABL1 (P00519 whole entry): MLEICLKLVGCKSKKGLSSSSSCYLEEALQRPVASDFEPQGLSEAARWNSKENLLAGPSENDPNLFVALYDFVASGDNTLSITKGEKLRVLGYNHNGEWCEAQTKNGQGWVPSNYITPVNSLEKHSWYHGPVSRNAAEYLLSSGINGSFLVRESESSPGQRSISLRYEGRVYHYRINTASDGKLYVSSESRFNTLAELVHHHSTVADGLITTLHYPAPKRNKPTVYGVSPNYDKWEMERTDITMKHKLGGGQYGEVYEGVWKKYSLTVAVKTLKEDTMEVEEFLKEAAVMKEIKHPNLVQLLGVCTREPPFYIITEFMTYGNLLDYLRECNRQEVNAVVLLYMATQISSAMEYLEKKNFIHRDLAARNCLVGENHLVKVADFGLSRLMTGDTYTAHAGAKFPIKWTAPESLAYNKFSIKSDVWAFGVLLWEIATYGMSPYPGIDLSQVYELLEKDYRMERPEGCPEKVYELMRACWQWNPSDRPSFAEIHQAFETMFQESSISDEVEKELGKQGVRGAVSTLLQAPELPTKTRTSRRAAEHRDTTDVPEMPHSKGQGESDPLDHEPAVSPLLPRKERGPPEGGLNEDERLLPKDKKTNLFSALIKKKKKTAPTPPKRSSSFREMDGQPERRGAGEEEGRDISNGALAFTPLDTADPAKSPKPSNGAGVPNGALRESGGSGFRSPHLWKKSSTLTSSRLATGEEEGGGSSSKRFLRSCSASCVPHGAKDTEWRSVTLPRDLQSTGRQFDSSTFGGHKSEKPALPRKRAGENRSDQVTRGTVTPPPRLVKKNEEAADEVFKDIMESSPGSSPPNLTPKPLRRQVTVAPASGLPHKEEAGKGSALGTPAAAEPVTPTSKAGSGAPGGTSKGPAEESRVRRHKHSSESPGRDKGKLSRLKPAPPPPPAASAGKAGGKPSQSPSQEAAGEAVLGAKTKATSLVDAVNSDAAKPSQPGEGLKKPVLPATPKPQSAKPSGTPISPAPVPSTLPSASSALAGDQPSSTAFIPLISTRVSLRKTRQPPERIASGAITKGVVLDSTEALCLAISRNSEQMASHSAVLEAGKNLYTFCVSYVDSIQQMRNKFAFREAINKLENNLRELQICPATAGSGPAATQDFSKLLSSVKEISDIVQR

SMILES	tyrosyl phosphorylation of Stat5 ([1]; 5 μM)	total Stat5 levels [1]	autophosphorylation of Src [2]	autophosphorylation of Src [3]	tyrosyl phosphorylation of Stat5 ([4]; 5 μM)	total Stat5 levels [4]	concentration that reduced levels of p-Bcr-Abl [5]	concentration that reduced levels of p-Bcr-Abl [6]	concentration inhibiting ABL kinase activity relative to Src kinase activity in vitro (ABL1)	resistance of the cells to the drug [7]
Cl.Cl.O=C1Nc2cc(Br)ccc2C1=C1Nc2ccccc2C1=NOCCN1CCNCC1 [compound 87]	substantially inhibited	unchanged	strong reduction	strong reduction	substantially inhibited	unchanged	higher than 0.5 μM	higher than 0.5 μM	about 15 fold	–
Cc1cn(-c2cc(NC(=O)c3ccc(C)c(Nc4nccc(-c5cccnc5)n4)c3)cc(C(F)(F)F)c2)cn1 [nilotinib]	–	–	–	–	–	–	–	–	–	resist
